Read-outs that look alike come from different tables or passages of the source.
Assays:
[1] = target: voltage-gated sodium channels; design: method as in Kuo and Bean, 1994; Lenkowski et al., 2007; conditions: ref Kuo and Bean, 1994; Lenkowski et al., 2007; read-out: Affinity to inactivated states of sodium channels; cited from earlier work
[2] = target: non-NMDA glutamate receptors; design: method as in Kawano et al., 1994; conditions: expressed in Xenopus oocytes; ref Kawano et al., 1994; cited from earlier work
[3] = target: T1, CI-AMPARs (Rattus norvegicus, UniProt P19491, Q607R); test: Whole-cell patch-clamp of kainate-induced currents in isolated hippocampal CA1 pyramidal neurons; assay type: cell-based, Wistar rat; conditions: for % block: representative recording; for inhibition at 30 µM: 30 µM phenytoin, n = 7; for inhibition at 100 µM: 100 µM phenytoin, read-out: % inhibition; for inhibition at 50 µM: n = 6
T1 construct: activity against native calcium-permeable AMPA receptors (CP-AMPARs) and calcium-impermeable AMPA receptors (CI-AMPARs); endogenous in cells; host or cells: acutely isolated pyramidal neurons from the CA1 area of Wistar rat hippocampal slices
Description: All experimental procedures were approved by the Animal Care and Use Committee of the I.M. Sechenov Institute of Evolutionary Physiology and Biochemistry of the Russian Academy of Sciences. Wistar rats (13–19 days old) were anesthetized with sevoflurane and then decapitated. Maximum effort was made to minimize the number of animals used. Brains were removed quickly and cooled to 2–4°C in an ice bath. […] The antagonism of CI-AMPARs was studied on pyramidal neurons from the CA1 area of the hippocampus.
Series resistance of about 20 MΩ was compensated by 70–80% and monitored during experiments. Currents were recorded using an EPC-8 amplifier (HEKA Electronics, Lambrecht, Germany), filtered at 5 kHz, sampled, and stored on a personal computer. Drugs were applied using the RSC-200 perfusion system (BioLogic Science Instruments, Claix, France) under computer control. The solution exchange time in the whole-cell mode was 50–60 ms. […] The pipette solution contained (in mM) CsF 100, CsCl 40, NaCl 5, CaCl2 0.5, EGTA 5, and HEPES 10 (pH was adjusted to 7.2 with CsOH). Experiments were performed at room temperature (22–24°C). […] Lamotrigine, topiramate, levetiracetam, felbamate, carbamazepine, tiagabin, vigabatrin, zonisamide, and gabapentin were purchased from Tocris Bioscience (Bristol, United Kingdom). Perampanel was from MedChemExpress (Stockholm, Sweden). Kinetics of transient processes of more than 20-ms duration was approximated by exponential functions. Experiments were performed at −80 mV holding voltage. All experimental data are presented as mean ± SD estimated from at least four experiments. Significance of the effects was tested with paired t test. Differences were considered significant at p < 0.05. 3D structures of compounds were calculated by the ZMM software (zmmsoft.ca).

[4] = target: non-NMDA glutamate receptors; design: method as in Phillips et al., 1997; conditions: neocortical wedges; ref Phillips et al., 1997; cited from earlier work
[5] = double-pulse protocol, 30-s pause

T1 sequence (P19491 22-883 Q607R): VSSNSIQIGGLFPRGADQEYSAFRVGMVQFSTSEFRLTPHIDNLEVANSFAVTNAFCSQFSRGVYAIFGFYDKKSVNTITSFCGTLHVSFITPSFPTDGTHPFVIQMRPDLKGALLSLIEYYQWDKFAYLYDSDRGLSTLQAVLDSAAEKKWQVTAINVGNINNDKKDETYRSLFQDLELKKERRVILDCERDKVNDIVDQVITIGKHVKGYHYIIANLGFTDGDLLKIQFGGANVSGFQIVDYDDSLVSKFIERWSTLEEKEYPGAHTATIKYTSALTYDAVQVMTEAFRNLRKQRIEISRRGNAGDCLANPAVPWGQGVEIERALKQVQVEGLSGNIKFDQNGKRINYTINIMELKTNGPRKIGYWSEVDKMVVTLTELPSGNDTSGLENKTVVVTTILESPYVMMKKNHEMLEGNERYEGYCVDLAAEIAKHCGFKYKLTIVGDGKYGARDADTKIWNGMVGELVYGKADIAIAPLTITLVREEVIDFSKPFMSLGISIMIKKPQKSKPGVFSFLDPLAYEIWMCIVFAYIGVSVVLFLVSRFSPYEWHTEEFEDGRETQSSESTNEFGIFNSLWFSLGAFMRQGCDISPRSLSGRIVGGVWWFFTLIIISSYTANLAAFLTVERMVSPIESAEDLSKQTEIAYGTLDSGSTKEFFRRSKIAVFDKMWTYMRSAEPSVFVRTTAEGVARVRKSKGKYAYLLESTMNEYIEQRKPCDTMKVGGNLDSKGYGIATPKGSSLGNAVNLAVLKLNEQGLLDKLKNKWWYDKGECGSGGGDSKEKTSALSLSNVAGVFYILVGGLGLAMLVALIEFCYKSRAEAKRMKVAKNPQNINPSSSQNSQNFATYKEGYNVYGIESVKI

In the case of `O=C1NC(=O)C(c2ccccc2)(c2ccccc2)N1` [Phenytoin], the Kd [1] is listed as 7 to 21 µM, the IC50 [2] is listed as at least 100 µM and the “% block” value ([3]; 10 μM phenytoin, Figure 1A) is listed as 28%. For the same compound, the inhibition at 30 µM ([3]; 50 µM kainate) was 55 ± 3%, the inhibition at 30 µM ([3]; 500 µM kainate) was 40 ± 7% and the “% block” value ([3]; 30 μM phenytoin, Figure 1A) was 52%. The “Washout kinetics τ” value ([3]; 50 µM phenytoin) was 1,100 ± 200 ms, the “Activity drop in the presence of cyclothiazide” value ([3]; 100 µM cyclothiazide, 50 µM kainate) was “Yes” and the inhibition at 100 µM ([3]; 50 µM kainate, absence of cyclothiazide) was 74 ± 4%. For the same compound, the inhibition at 100 µM ([3]; 50 µM kainate, presence of 100 µM cyclothiazide) was 21 ± 7%, the “% block” value ([3]; 100 μM phenytoin, Figure 1A) was 75% and the inhibition at 300 µM ([3]; 300 µM compound, read-out: percentage of inhibition at 300-µM concentration) was at least 80%. The “τ of the testing response to kainate in the trapping protocol” value ([3]; 300 µM phenytoin, 500 µM kainate, n = 4) was 81 ± 17 ms, the inhibition at 300 µM ([3]; 300 µM phenytoin, coapplication with agonist, n = 5, read-out: % inhibition of open AMPA receptor channels) was 87 ± 5% and the inhibition at 300 µM ([3]; 300 µM phenytoin, preapplication without agonist, n = 5, read-out: % inhibition of closed AMPA receptor channels) was 37 ± 7%. The “% block” value ([3]; 300 μM phenytoin, Figure 1A) was 87%, the “inhibition of kainate-induced currents” value ([3]; 500 µM phenytoin, highest concentration tested) was “almost complete inhibition” and the “Activity drop at high (500 µM) kainate concentration” value ([3]; 50 vs 500 µM kainate) was “Yes”. For the same compound, the “decrease in the % of inhibition with the increase in agonist concentration” value ([3]; 50 vs 500 µM kainate) was 10–15%, the “% block” value ([3]; Phenytoin, 30 μM, Ka 50 μM, Figure 3A) was 57% and the “% block” value ([3]; Phenytoin, 30 μM, Ka 500 μM, Figure 3A) was 44%. For the same compound, the “% block” value ([3]; Phenytoin, 100 μM, Kainate, 50 μM + cyclothiazide, 100 μM, Figure 5C) was 19%, the “% block” value ([3]; Phenytoin, 100 μM, Kainate, 50 μM, Figure 5B) was 74% and the “Difference in the % of inhibition in coapplication and preapplication protocols” value ([3]; coapplication with kainate vs preapplication without kainate) was “Yes”. The “More active against CI-AMPARs” value ([3]; comparison of CI-AMPARs and CP-AMPARs) was “Yes”, the “Trap in kainate 100 µM” value [3, 5] was “Yes” and the “Trap in kainate 500 µM” value [3, 5] was “questionable”. The “Trap in kainate 100 µM” value ([3]; double-pulse protocol, 30-s pause, listed as phenytoin) was “pronounced trapping”, the Hill coefficient ([3]; inhibition of CI-AMPARs, Hill equation) was 0.9 ± 0.2 and the inhibition at 50 µM ([3]; pH 7.4, 50 µM phenytoin, pH 7.4) was 60 ± 3%. The pH-dependence ([3]; pH 7.4 vs 9.0) was “Yes”, the inhibition at 50 µM ([3]; pH 9, 50 µM phenytoin, pH 9.0) was 28 ± 8% and the “% block” value ([3]; phenytoin 50 μM, pH 7.4, Kainate, 100 μM, Figure 10A) was 62%. For the same compound, the “% block” value ([3]; phenytoin 50 μM, pH 9.0, Kainate, 100 μM, Figure 10A) was 29% and the IC50 [4] was at least 100 µM.
